Data: article PMC9244950 (ACS Omega, 2022)
In brackets after ≈: the same amount, converted by molar mass.

How the values were obtained:
[1] = test system: Mtb H37Rv strain; assay: microbe, parasite or virus in culture; assay type: cell-based, Mycobacterium tuberculosis
[2] = In vitro cytotoxicity, THP-1 cell viability after 3 days; assay type: cell-based; settings: human, THP-1 cells
[3] = molecular target: wild-type InhA (Mycobacterium tuberculosis, UniProt P9WGR1); assay: InhA inhibition assay; assay type: biochemical
[4] = Mycobacterium tuberculosis, H37RV
[5] = Mycobacterium tuberculosis, H37RV, Mtb H37Rv, dual read-out (OD590 and fluorescence)
[6] = Mtb H37Rv, dual read-out (OD590 and fluorescence)

wild-type InhA, sequence (P9WGR1 whole entry, looked up): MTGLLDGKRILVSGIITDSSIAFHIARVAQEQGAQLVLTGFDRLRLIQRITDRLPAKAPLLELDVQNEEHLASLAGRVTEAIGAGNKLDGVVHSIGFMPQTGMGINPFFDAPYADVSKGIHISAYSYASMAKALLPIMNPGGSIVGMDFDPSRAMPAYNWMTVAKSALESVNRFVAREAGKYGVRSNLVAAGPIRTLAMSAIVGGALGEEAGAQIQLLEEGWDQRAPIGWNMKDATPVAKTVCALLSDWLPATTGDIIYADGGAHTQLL

Row | Compound | MIC [1, 4] | IC50 [1, 5] | IC50 at 3 days [2] | IC50 [3] | IC50 [1, 6] | MIC [1, 6]
1 | O=C1c2ccccc2C(=O)N1c1nnc(-c2ccccc2)s1 [Compound 19, 2-((5-Phenyl)-1,3,4-thiadiazol-2-yl)isoindoline-1,3-dione] | > 200 µM | > 200 µM | – | – | – | –
2 | O=C1c2ccccc2C(=O)N1c1ccc(Br)cc1 [Compound 8, 2-(4-Bromophenyl)isoindoline-1,3-dione] | 102 µM (≈ 30.8 µg/mL) | 31 µM | > 150 µM | – | – | –
3 | O=C1c2ccccc2C(=O)N1c1nnc(-c2ccc(I)cc2)s1 [Compound 27, 2-(5-(4-Iodophenyl)-1,3,4-thiadiazol-2-yl)isoindoline-1,3-dione] | 64 µM (≈ 27.7 µg/mL) | 18 µM | > 200 µM | 8.65 µM | – | –
4 | O=C1c2ccccc2C(=O)N1c1nnc(-c2cccc(Cl)c2)s1 [Compound 26, 2-(5-(3-Chlorophenyl)-1,3,4-thiadiazol-2-yl)isoindoline-1,3-dione] | 192 µM (≈ 65.6 µg/mL) | 80 µM | – | – | – | –
5 | O=C(NN1C(=O)c2ccccc2C1=O)c1ccc(O)cc1 [Compound 20, N-(1,3-Dioxoisoindoline-2-yl)-4-hydroxybenzamide] | > 200 µM | 101 µM | – | – | – | –
6 | COc1ccc(-c2nnc(N3C(=O)c4ccccc4C3=O)s2)cc1 [Compound 16, 2-(5-(4-Methoxyphenyl)-1,3,4-thiadiazol-2-yl)isoindoline-1,3-dione] | 182 µM (≈ 61.4 µg/mL) | 62 µM | – | – | – | –
7 | O=C1c2ccccc2C(=O)N1c1ccc(F)cc1 [Compound 2, 2-(4-Fluorophenyl)isoindoline-1,3-dione] | > 200 µM | 197 µM | – | – | – | –
8 | COc1ccccc1-c1nnc(N2C(=O)c3ccccc3C2=O)s1 [Compound 22, 2-(5-(2-Methoxyphenyl)-1,3,4-thiadiazol-2-yl)isoindoline-1,3-dione] | 180 µM (≈ 60.7 µg/mL) | 58 µM | – | – | – | –
9 | NNC(=O)c1ccncc1 [Isoniazid, reference compound] | 0.38 µM (≈ 0.0521 µg/mL) | 0.15 µM | – | – | – | –
10 | O=C1c2ccccc2C(=O)N1c1ccc(Br)cn1 [Compound 14, 2-(5-Bromopyridin-2-yl)isoindoline-1,3-dione] | > 200 µM | 90 µM | – | – | – | –
11 | Cc1ccccc1N1C(=O)c2ccccc2C1=O [Compound 3, 2-(o-Tolyl)isoindoline-1,3-dione] | 194 µM (≈ 46 µg/mL) | 68 µM | – | – | – | –
12 | Cc1cccc(N2C(=O)c3ccccc3C2=O)c1 [Compound 5, 2-(m-Tolyl)isoindoline-1,3-dione] | 100 µM (≈ 23.7 µg/mL) | 29 µM | > 150 µM | – | – | –
13 | O=C1c2ccccc2C(=O)N1c1nnc(-c2ccccc2F)s1 [Compound 25, 2-(5-(2-Fluorophenyl)-1,3,4-thiadiazol-2-yl)isoindoline-1,3-dione] | > 200 µM | 133 µM | – | – | – | –
14 | Cc1ccnc(N2C(=O)c3ccccc3C2=O)c1 [Compound 12, 2-(4-Methylpyridin-2-yl)isoindoline-1,3-dione] | > 200 µM | 148 µM | – | – | 160 µM | –
15 | Cc1cccc(-c2nnc(N3C(=O)c4ccccc4C3=O)s2)c1 [Compound 23, 2-(5-(m-Tolyl)-1,3,4-thiadiazol-2-yl)isoindoline-1,3-dione] | 123 µM (≈ 39.5 µg/mL) | 43 µM | – | – | – | –
16 | O=C1c2ccccc2C(=O)N1c1cccc(Cl)c1 [Compound 7, 2-(3-Chlorophenyl)isoindoline-1,3-dione] | 96 µM (≈ 24.7 µg/mL) | 26 µM | > 150 µM | – | – | –
17 | O=C1c2ccccc2C(=O)N1c1ccc(Cl)cc1 [Compound 6, 2-(4-Chlorophenyl)isoindoline-1,3-dione] | 94 µM (≈ 24.2 µg/mL) | 28 µM | > 150 µM | – | – | –
18 | 2-(4-Methyl-2-oxo-2H-chromen-6-yl)isoindoline-1,3-dione [Compound 30] | – | – | – | – | > 200 µM | > 200 µM
19 | O=C1c2ccccc2C(=O)N1c1ccc(F)c(Cl)c1 [Compound 4, 2-(3-Chloro-4-fluorophenyl)isoindoline-1,3-dione] | 186 µM (≈ 51.3 µg/mL) | 64 µM | – | – | – | –
20 | O=C1c2ccccc2C(=O)N1c1nnc(-c2cccc(Br)c2)s1 [Compound 21, 2-(5-(3-Bromophenyl)-1,3,4-thiadiazol-2-yl)isoindoline-1,3-dione] | > 200 µM | 100 µM | – | – | – | –
21 | O=C1c2ccccc2C(=O)N1c1nnc(-c2ccccc2[N+](=O)[O-])s1 [Compound 28, 2-(5-(2-Nitrophenyl)-1,3,4-thiadiazol-2-yl)isoindoline-1,3-dione] | > 200 µM | 171 µM | – | – | – | –
22 | Cc1ccc(N2C(=O)c3ccccc3C2=O)nc1 [Compound 13, 2-(5-Methylpyridin-2-yl)isoindoline-1,3-dione] | > 200 µM | 160 µM | – | – | 148 µM | –
23 | Cc1nnc(N2C(=O)c3ccccc3C2=O)s1 [Compound 29, 2-(5-Methyl-1,3,4-thiadiazol-2-yl)isoindolin-1,3-dione] | > 200 µM | 100 µM | – | – | – | –
24 | O=C1c2ccccc2C(=O)N1c1cccc([N+](=O)[O-])c1 [Compound 10, 2-(3-Nitrophenyl)isoindoline-1,3-dione] | > 200 µM | 121 µM | – | – | – | –
25 | O=C(O)CN1C(=O)c2ccccc2C1=O [Compound 11, 2-(1,3-Dioxoisoindolin-2-yl)acetic Acid] | 164 µM (≈ 33.6 µg/mL) | 55 µM | – | – | – | –
26 | O=C1c2ccccc2C(=O)N1c1nnc(Cc2ccccc2)s1 [Compound 24, 2-(5-Benzyl--1,3,4-thiadiazol-2-yl)isoindoline-1,3-dione] | > 200 µM | > 200 µM | – | – | – | –
